Results: article PMC4996523, “Biophysical and Pharmacological Characterization of Nav1.9 Voltage Dependent Sodium Channels Stably Expressed in HEK-293 Cells” (PLoS ONE, 2016)
Where “and” joins values, the source holds several entries; their conditions need not be identical. Equal values may be shown once. Entries after “also recorded” stand apart in the source; their conditions may differ. Read-outs that look alike come from different tables or passages of the source.

What was measured:
Type in all cases: cell-based
[1] = target: T1, Human Nav1.9 F1592A/Y1599A (Homo sapiens, UniProt Q9UI33, F1592A/Y1599A); assay: PatchXpress whole-cell voltage clamp, inhibition of the human Nav1.9 F1592A/Y1599A local anesthetic site mutant in HEK-293 cells; conditions: for IC50: read-out: IC50 for inhibition of human Nav1.9 F1592A/Y1599A (LAM)
T1 construct: expressed in transfected cells; host or cells: HEK-293-β1/β2

[2] = target: T2, Human Nav1.9 (Homo sapiens, UniProt Q9UI33); assay: PatchXpress whole-cell voltage clamp, inhibition of human Nav1.9 (+β1/β2) currents in HEK-293 cells; design: key to Activity on human Nav1.9 at single concentration: NA = not active; conditions: for Increase in potency at the most depolarized membrane potential: -90 mV vs -140 mV (resting to half-inactivated channels)
T2 construct: expressed in transfected cells; host or cells: HEK-293 stably expressing human β1/β2

[3] = target: T3, Nav1.7 N945K (Homo sapiens, UniProt Q15858, N956K); assay: PatchXpress whole-cell voltage clamp, inhibition of the human Nav1.7 N945K mutant in HEK-293 cells
T3 construct: expressed in transfected cells; host or cells: HEK-293-β1/β2

[4] = target: T4, Nav1.9 K799N (Homo sapiens, UniProt Q9UI33, K799N); assay: PatchXpress whole-cell voltage clamp, inhibition of the human Nav1.9 K799N mutant in HEK-293 cells; conditions: for IC50: protocol of Fig 2
T4 construct: expressed in transfected cells; host or cells: HEK-293-β1/β2

[5] = target: T5, Human Nav1.7 (Homo sapiens, UniProt Q15858); assay: PatchXpress whole-cell voltage clamp, inhibition of human Nav1.7 in HEK-293 cells
T5 construct: expressed in transfected cells; host or cells: HEK-293-β1/β2

[6] = target: T6, Mouse Nav1.9 (Mus musculus, UniProt Q9R053); assay: PatchXpress whole-cell voltage clamp, inhibition of mouse Nav1.9 (+mouse β1/β2) in HEK-293 cells
T6 construct: expressed in transfected cells; host or cells: HEK-293-mouse β1/β2

[7] = target: T7, Rat Nav1.9 (Rattus norvegicus, UniProt O88457); assay: PatchXpress whole-cell voltage clamp, inhibition of rat Nav1.9 (+rat β1/β2) in HEK-293 cells
T7 construct: expressed in transfected cells; host or cells: HEK-293-rat β1/β2

[8] = target: Human Nav1.8 (Homo sapiens, UniProt Q9Y5Y9); assay: Whole-cell voltage clamp, inhibition of human Nav1.8; conditions: ~50% inactivated
[9] = holding potential -120 mV (~25% inactivation), 40 ms step to -40 mV every 20 s, HEK-293 + β1/β2, 500 μM GTP-γ-S in pipette, read-out: IC50 for inhibition of human Nav1.9
[10] = Nav1.9 F1592A/Y1599A vs Nav1.9 WT

T4 sequence (Q9UI33 whole entry K799N): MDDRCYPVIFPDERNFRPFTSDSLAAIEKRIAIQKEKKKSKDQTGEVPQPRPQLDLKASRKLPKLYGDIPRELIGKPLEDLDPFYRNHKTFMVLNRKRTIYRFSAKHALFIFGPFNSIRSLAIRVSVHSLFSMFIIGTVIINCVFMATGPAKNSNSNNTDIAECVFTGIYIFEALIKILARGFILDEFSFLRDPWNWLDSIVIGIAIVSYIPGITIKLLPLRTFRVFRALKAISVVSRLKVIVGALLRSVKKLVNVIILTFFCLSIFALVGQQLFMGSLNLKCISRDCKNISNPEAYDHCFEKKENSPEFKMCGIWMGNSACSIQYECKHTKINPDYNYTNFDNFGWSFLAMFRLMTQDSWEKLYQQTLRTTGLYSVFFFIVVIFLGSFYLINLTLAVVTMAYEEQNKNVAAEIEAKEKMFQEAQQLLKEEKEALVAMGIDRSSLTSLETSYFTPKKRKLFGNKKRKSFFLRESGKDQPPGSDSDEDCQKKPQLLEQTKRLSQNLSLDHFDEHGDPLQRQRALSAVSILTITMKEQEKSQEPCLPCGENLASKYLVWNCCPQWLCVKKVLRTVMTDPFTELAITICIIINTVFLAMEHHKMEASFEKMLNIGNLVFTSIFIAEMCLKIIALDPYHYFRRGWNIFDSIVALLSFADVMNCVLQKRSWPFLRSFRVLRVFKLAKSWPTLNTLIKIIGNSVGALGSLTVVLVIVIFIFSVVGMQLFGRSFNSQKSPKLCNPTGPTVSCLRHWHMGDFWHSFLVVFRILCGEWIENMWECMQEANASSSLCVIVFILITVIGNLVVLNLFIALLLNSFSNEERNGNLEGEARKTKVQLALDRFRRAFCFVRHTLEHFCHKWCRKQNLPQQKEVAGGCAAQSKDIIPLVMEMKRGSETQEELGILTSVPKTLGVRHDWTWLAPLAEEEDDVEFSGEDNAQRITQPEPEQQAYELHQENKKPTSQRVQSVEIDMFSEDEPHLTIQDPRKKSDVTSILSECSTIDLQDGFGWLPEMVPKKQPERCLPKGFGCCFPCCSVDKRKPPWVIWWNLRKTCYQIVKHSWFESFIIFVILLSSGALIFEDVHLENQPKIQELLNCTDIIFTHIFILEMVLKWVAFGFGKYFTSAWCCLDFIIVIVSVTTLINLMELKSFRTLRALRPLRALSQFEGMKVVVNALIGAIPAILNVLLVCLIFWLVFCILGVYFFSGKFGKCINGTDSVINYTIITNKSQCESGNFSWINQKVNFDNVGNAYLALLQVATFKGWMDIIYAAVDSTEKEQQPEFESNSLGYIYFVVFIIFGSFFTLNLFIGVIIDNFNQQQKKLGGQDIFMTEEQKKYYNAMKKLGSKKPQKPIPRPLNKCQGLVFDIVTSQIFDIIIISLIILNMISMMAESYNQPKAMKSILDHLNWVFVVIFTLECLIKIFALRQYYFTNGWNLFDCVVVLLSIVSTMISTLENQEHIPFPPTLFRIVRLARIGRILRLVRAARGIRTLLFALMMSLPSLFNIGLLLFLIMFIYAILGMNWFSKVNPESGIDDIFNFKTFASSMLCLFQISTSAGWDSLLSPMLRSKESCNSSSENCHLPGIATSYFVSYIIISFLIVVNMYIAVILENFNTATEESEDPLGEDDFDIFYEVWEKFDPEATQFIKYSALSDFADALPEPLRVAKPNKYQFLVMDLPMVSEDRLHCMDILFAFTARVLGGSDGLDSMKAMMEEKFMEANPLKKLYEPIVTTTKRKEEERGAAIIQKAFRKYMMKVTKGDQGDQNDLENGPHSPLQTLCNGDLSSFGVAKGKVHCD
T4 sequence (Q07699 19-218 partner): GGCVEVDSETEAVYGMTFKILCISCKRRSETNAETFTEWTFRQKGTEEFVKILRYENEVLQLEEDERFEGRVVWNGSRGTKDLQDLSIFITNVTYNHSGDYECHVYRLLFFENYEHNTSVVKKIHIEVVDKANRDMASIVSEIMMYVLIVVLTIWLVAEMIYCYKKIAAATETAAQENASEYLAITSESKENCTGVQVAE
T2 sequence (Q9UI33 whole entry): as the sequence (Q9UI33 whole entry K799N) above, with N799K counted along it
T2 sequence (Q07699 19-218 partner): as the sequence (Q07699 19-218 partner) above
T3 sequence (Q15858 1-1977 isoform Q15858-3 N945K): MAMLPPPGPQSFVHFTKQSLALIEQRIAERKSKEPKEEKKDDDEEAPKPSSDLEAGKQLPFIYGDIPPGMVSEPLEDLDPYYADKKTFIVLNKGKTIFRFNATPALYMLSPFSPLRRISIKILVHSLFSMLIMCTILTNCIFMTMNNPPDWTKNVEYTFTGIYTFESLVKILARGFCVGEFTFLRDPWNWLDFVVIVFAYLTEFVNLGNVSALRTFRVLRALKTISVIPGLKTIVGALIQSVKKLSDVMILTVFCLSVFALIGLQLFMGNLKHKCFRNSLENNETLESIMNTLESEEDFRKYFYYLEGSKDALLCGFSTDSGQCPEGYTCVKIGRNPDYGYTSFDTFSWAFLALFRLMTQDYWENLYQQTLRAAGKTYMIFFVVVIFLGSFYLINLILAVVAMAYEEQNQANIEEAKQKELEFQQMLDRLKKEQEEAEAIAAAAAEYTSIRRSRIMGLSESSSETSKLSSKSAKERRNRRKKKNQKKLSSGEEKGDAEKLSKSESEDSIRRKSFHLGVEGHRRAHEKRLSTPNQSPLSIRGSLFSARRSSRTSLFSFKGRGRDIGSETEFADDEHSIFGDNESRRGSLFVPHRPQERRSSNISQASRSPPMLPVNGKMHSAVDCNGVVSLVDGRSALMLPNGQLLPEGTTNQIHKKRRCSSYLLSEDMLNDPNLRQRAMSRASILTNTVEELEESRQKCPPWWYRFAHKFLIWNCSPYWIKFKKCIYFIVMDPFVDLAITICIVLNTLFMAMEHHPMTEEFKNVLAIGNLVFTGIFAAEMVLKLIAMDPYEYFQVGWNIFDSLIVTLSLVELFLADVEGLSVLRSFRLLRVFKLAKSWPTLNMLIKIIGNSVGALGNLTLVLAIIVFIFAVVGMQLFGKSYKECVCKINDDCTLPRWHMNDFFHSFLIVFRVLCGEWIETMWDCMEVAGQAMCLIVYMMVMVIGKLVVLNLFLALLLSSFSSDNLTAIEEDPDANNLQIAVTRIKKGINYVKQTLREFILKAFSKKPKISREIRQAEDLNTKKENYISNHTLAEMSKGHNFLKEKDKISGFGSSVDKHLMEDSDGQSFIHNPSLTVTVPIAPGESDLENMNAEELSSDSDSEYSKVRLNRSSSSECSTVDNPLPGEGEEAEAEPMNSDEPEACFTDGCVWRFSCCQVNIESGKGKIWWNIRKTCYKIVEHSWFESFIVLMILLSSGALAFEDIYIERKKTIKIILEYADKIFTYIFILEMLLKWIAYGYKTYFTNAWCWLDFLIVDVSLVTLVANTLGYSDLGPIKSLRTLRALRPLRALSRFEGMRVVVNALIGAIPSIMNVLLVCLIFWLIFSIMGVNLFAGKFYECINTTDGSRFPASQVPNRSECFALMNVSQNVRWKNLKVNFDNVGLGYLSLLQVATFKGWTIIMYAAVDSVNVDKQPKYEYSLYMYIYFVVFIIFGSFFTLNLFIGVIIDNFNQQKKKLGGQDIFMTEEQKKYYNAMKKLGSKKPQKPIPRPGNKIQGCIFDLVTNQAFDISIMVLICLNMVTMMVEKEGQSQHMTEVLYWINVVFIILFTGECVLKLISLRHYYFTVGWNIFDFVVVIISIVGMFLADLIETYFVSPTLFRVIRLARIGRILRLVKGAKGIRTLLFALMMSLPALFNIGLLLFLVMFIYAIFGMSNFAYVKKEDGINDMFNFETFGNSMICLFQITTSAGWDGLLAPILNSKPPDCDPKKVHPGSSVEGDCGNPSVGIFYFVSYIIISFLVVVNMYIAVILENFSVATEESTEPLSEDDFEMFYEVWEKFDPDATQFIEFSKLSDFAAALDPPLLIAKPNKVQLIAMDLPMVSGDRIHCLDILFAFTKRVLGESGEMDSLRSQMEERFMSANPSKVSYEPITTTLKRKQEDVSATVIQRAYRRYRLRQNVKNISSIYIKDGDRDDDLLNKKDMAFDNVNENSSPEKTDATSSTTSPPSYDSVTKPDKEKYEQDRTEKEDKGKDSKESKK
T3 sequence (Q07699 19-218 partner): as the sequence (Q07699 19-218 partner) above
T3 sequence (O60939 30-215 partner): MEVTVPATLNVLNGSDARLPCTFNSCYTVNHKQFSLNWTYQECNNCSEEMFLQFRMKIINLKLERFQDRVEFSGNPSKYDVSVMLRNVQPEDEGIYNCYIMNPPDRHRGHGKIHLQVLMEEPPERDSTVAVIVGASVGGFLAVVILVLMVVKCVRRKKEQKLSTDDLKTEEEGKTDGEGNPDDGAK
T1 sequence (Q9UI33 whole entry F1592A/Y1599A): as the sequence (Q9UI33 whole entry K799N) above, with N799K, F1592A, Y1599A counted along it
T1 sequence (Q07699 19-218 partner): as the sequence (Q07699 19-218 partner) above
T5 sequence (Q15858 1-1977 isoform Q15858-3): as the sequence (Q15858 1-1977 isoform Q15858-3 N945K) above, with K945N counted along it
T5 sequence (Q07699 19-218 partner): as the sequence (Q07699 19-218 partner) above
T5 sequence (O60939 30-215 partner): as the sequence (O60939 30-215 partner) above

For `CN(C)CCC=C1c2ccccc2CCc2ccccc21` [Amitriptyline], which IC50 ([1]; same protocol as Nav1.9 WT) is on record?
Its IC50 is 105 µM.

What about the IC50 [2, 9] of the same compound?
The IC50 was 29 µM.

For `O=C(NCC1CCCCN1)c1cc(OCC(F)(F)F)ccc1OCC(F)(F)F` (centres unmarked) [Flecainide], which IC50 [2, 9] is on record?
Its IC50 is 244 µM.

With `[Cl][Cd][Cl]` [CdCl2] as the compound, how does the “Activity on human Nav1.9 at single concentration” value (from here on “Activity”) ([2]; 100 μM) read?
The value was “NA @ 100 μM”.

What does the source list for `CCN(CC)CC(=O)Nc1c(C)cccc1C` [Lidocaine]?
Effect of the F1592A/Y1599A mutation on Nav1.9 inhibition [1]: reduced; IC50 ([1]; same protocol as Nav1.9 WT): 5550 µM; IC50 [2, 9]: 356 µM

Which “Effect of the F1592A/Y1599A mutation on Nav1.9 inhibition” value [1, 10] does the source give for `CCOC(=O)c1ccc(N)cc1` [Benzocaine] here?
Its value is “reduced”.

What about the “Reduction in potency by the F1592A/Y1599A mutation” value [1, 10] of the same compound?
The value was 5 fold.

And the IC50 ([1]; in figure)?
Its IC50 is 1800 µM.

What about the IC50 ([1]; same protocol as Nav1.9 WT) of the same compound?
Its IC50 is 1760 µM.

And the IC50 [2, 9]?
Its IC50 is 351 µM.

What about the IC50 ([2]; in figure, holding potential -120 mV, read-out: IC50 for inhibition of human Nav1.9 WT) of the same compound?
The IC50 was 400 µM.

And the “Effect of the N945K mutation on sensitivity” value ([3]; Nav1.7 N945K vs Nav1.7 WT)?
Its value is “no shift; also recorded: unchanged”.

What about the IC50 ([3]; in figure) of the same compound?
Its IC50 is 180 µM.

And the “Effect of the K799N mutation on potency” value ([4]; Nav1.9 K799N vs Nav1.9 WT)?
Its value is “unaffected”.

What about the IC50 ([4]; in figure) of the same compound?
The IC50 was 300 µM.

And the IC50 ([5]; in figure, read-out: IC50 for inhibition of Nav1.7 WT)?
The IC50 was 130 µM.

What about the IC50 ([5]; wild type, ~50% inactivated, read-out: IC50 for inhibition of human Nav1.7) of the same compound?
Its IC50 is 133 µM.

`COCCOC(=O)C1=C(C)NC(C)=C(C(=O)OC(C)C)C1c1cccc([N+](=O)[O-])c1` (centres unmarked) [Nimodipine] was tested. Which IC50 [2, 9] did it give?
Its IC50 is 33 µM.

`NC1=N[C@H](O)[C@H]2[C@H]3O[C@]4(O)O[C@@H]([C@@H](O)[C@@]2(N1)[C@@H]4O)[C@]3(O)CO` [TTX, tetrodotoxin] was tested. Which “Activity” value [2] did it give?
The value was “NA @ 10 μM”.

And the “Sensitivity of peak inward Nav1.9 current to inhibition” value [2]?
Its value is “insensitive”.

Which results are given for `CCCCNc1ccc(C(=O)OCCN(C)C)cc1` [Tetracaine]?
IC50 [6]: 12 µM; IC50 ([1]; same protocol as Nav1.9 WT): 177 µM; Increase in potency at the most depolarized membrane potential [2]: ~3 fold; Increase in potency at the most depolarized membrane potential ([2]; listed as tetracaine): no more than 3 fold; IC50 ([2]; holding potential -90 mV, read-out: IC50 for inhibition of Nav1.9 at holding potential -90 mV): 17 µM; IC50 ([2]; holding potential -100 mV, read-out: IC50 for inhibition of Nav1.9 at holding potential -100 mV): 22 µM; IC50 [2, 9]: 31.7 µM and 32 µM; IC50 ([2]; holding potential -120 mV, Fig 2B holding potential series, read-out: IC50 for inhibition of Nav1.9 at holding potential -120 mV): 31 µM; IC50 ([2]; holding potential -140 mV, read-out: IC50 for inhibition of Nav1.9 at holding potential -140 mV): 54 µM; Decrease in sensitivity by the N945K mutation ([3]; Nav1.7 N945K vs Nav1.7 WT): 3 fold; Increase in potency by the K799N mutation ([4]; Nav1.9 K799N vs Nav1.9 WT): 3 fold; IC50 [4]: 10.3 µM and 10 µM; IC50 [7]: 7.6 µM; IC50 [8]: 0.3 µM

`COCC(=O)O[C@]1(CCN(C)CCCc2nc3ccccc3[nH]2)CCc2cc(F)ccc2[C@@H]1C(C)C` [Mibefradil] was tested. Which “Activity” value ([2]; 10 μM) did it give?
Its value is “NA @ 10 μM”.

How did the “Effect of the F1592A/Y1599A mutation on Nav1.9 inhibition” value [1, 10] turn out when `CC(=O)Nc1cccc(Nc2ncnc(N3CCC(OCc4ccc(OC(F)(F)F)cc4)CC3)n2)c1C` [TC-N 1752] was run?
Its value is “essentially abolished”.

What about the “Decrease in potency by the K799N mutation” value ([4]; Nav1.9 K799N vs Nav1.9 WT) of the same compound?
The value was 5.6 fold and ~ 6 fold.

`CCCCN1CCCCC1C(=O)Nc1c(C)cccc1C` (centres unmarked) [Bupivacaine] was tested. Which IC50 [2, 9] did it give?
Its IC50 is 186 µM.

`Nc1nnc(-c2cccc(Cl)c2Cl)c(N)n1` [Lamotrigine] was tested. Which IC50 [2, 9] did it give?
The IC50 was 199 µM.

`COc1cc(NC(=O)c2ccc(-c3ccc(Cl)cc3)o2)cc(OC)c1` [A-803467] was tested. Which “Inhibition of human Nav1.9 at single concentration” value ([2]; 10 μM) did it give?
Its value is 30% @ 10 μM.

Which “Activity” value ([2]; 10 μM) does the source give for `O=C(Nc1ccc(S(=O)(=O)Nc2nccs2)cc1)C(c1ccccc1)c1ccccc1` [ICA-121431] here?
Its value is “NA @ 10 μM”.

What does the source list for `Cc1cccc(C)c1OCC(C)N` (centres unmarked) [Mexiletine]?
Effect of the F1592A/Y1599A mutation on Nav1.9 inhibition [1, 10]: reduced; IC50 ([1]; same protocol as Nav1.9 WT): 837 µM; IC50 [2, 9]: 270 µM; IC50 [8]: 18 µM
